In ChEMBL document CHEMBL5370646, “Synthesis and Conformational Analysis of FR901464-Based RNA Splicing Modulators and Their Synergism in Drug-Resistant Cancers” (J Med Chem, 2023):

Tests used:
[1] = tested on: DMS-53; experiment: Growth inhibition of human DMS-53 cells assessed as reduction in cell viability incubated for 72 hrs; format: functional
[2] = tested on: SW48; experiment: Growth inhibition of human SW48 cells assessed as reduction in cell viability incubated for 72 hrs; format: functional
[3] = Metabolic stability in CD1 mouse plasma assessed as half life measured after 10 mins by LC-MS analysis; format: ADME, cell-free
[4] = Growth inhibition of human CCD-841CoN cells assessed as reduction in cell viability incubated for 72 hrs; format: toxicity, cell-based
[5] = tested on: A549; experiment: Growth inhibition of human A549 cells assessed as reduction in cell viability incubated for 72 hrs; format: functional
[6] = tested on: HCT-116; experiment: Growth inhibition of human HCT-116 cells assessed as reduction in cell viability incubated for 72 hrs; format: functional
[7] = tested on: DMS-114; experiment: Growth inhibition of human DMS-114 cells assessed as reduction in cell viability incubated for 72 hrs; format: functional
[8] = Growth inhibition of mouse FL83B cells assessed as reduction in cell viability incubated for 72 hrs; format: toxicity, cell-based
[9] = Synergistic antiproliferative activity against human Osimertinib-resistant HCC827AR cell assessed as combination index at 2.5 nM incubated for 72 hrs in presence of 0.25 uM osimertinib by WST-1 assay; format: functional
[10] = Synergistic antiproliferative activity against human Osimertinib-resistant HCC827AR cell assessed as combination index at 2.5 nM incubated for 72 hrs in presence of 0.50 uM osimertinib by WST-1 assay; format: functional
[11] = Synergistic antiproliferative activity against human Osimertinib-resistant HCC827AR cell assessed as combination index at 2.5 nM incubated for 72 hrs in presence of 1 uM osimertinib by WST-1 assay; format: functional
[12] = Synergistic antiproliferative activity against human Osimertinib-resistant HCC827AR cell assessed as combination index at 2.5 nM incubated for 72 hrs in presence of 4 uM osimertinib by WST-1 assay; format: functional
[13] = Synergistic antiproliferative activity against human Osimertinib-resistant HCC827AR cell assessed as combination index at 2.5 nM incubated for 72 hrs in presence of 2 uM osimertinib by WST-1 assay; format: functional
[14] = Metabolic stability in CD1 mouse plasma assessed as half life measured after 48 hrs by LC-MS analysis; format: ADME, cell-free
[15] = tested on: HCT-116; experiment: Modulation of RNA splicing in human HCT-116 cells assessed as decrease in SF3B1 phosphorylation at thr313 residue by Western blot analysis; format: functional, cell-based; settings: dose 3-100 nM
[16] = tested on: HCT-116; experiment: Modulation of RNA splicing in human HCT-116 cells assessed as decrease in MCL-1S expression by Western blot analysis; format: functional, cell-based; settings: dose 3-100 nM
[17] = Metabolic stability in CD1 mouse plasma measured after 48 hrs by LC-MS analysis; format: ADME, cell-free
[18] = tested on: HCT-116; experiment: Modulation of RNA splicing in human HCT-116 cells assessed as decrease in MCL-1L expression by Western blot analysis; format: functional, cell-based; settings: dose 3-100 nM

| GI50 [2] | GI50 [5] | GI50 [6] | half-life [14] | Stability [17] | Compound | GI50 [1] | half-life [3] | GI50 at 72 h [4] | GI50 [7] | GI50 at 72 h [8] | CI [9] | CI [10] | CI [11] | CI [12] | CI [13] | Activity [15] | Activity [16] | Activity [18] |
| --- | --- | --- | --- | --- | --- | --- | --- | --- | --- | --- | --- | --- | --- | --- | --- | --- | --- | --- |
| 16000 nM | 34000 nM | 16000 nM | – | – | COCO[C@@H](C)/C=C\C(=O)N(C)[C@@H]1CC[C@H](C/C=C(C)/C=C/[C@H]2OC(C)(C)C[C@@]3(CO3)[C@@H]2O)O[C@@H]1C | 23000 nM | – | – | 8700 nM | – | – | – | – | – | – | – | – | – |
| 4600 nM | 7500 nM | 4100 nM | – | – | COCO[C@@H](C)/C=C\C(=O)N(C)[C@@H]1C[C@H](C)[C@H](C/C=C(C)/C=C/[C@H]2OC(C)(C)C[C@@]3(CO3)[C@@H]2O)O[C@@H]1C | 6000 nM | – | – | 4900 nM | – | – | – | – | – | – | – | – | – |
| 10.7 nM | 8.6 nM | 10.5 nM | 8 h | Stable | COCO[C@@H](C)/C=C\C(=O)N[C@@H]1CC[C@H](C/C=C(C)/C=C/[C@H]2OC(C)(C)C[C@@]3(CO3)[C@@H]2O)O[C@@H]1C | 14.9 nM | – | 63.2 nM | 10.2 nM | 35.7 nM | – | – | – | – | – | Dose-Dependent Effect | Dose-Dependent Effect | Dose-Dependent Effect |

Second part, the molecule before the results:

| Compound | GI50 [2] | GI50 [5] | GI50 [6] | half-life [14] | Stability [17] | GI50 [1] | half-life [3] | GI50 at 72 h [4] | GI50 [7] | GI50 at 72 h [8] | CI [9] | CI [10] | CI [11] | CI [12] | CI [13] | Activity [15] | Activity [16] | Activity [18] |
| --- | --- | --- | --- | --- | --- | --- | --- | --- | --- | --- | --- | --- | --- | --- | --- | --- | --- | --- |
| CC(=O)O[C@@H](C)/C=C\C(=O)N[C@@H]1C[C@H](C)[C@H](C/C=C(C)/C=C/[C@H]2OC(C)(C)C[C@@]3(CO3)[C@@H]2O)O[C@@H]1C | 0.9 nM | 2.7 nM | 0.7 nM | – | – | 0.5 nM | 1 min | 2 nM | 0.4 nM | 0.9 nM | – | – | – | – | – | – | – | – |
| Cc1c(-c2c(-c3ccc(F)o3)sc3ncnc(O[C@H](Cc4ccccc4OCc4ccnn4CC(F)(F)F)C(=O)O)c23)ccc(OCCN2CCN(C)CC2)c1Cl | – | – | – | – | – | – | – | – | – | – | 0.38 | 0.46 | 0.55 | 0.42 | 0.47 | – | – | – |
